Marks after values point to notes of the source that are not given here.

Common to all, as to assay type: biochemical
One experiment deals with T1, ST3Gal-III (Rattus norvegicus, UniProt Q02734).
T1 construct: purchased Calbiochem
T1 sequence (Q02734 1-374): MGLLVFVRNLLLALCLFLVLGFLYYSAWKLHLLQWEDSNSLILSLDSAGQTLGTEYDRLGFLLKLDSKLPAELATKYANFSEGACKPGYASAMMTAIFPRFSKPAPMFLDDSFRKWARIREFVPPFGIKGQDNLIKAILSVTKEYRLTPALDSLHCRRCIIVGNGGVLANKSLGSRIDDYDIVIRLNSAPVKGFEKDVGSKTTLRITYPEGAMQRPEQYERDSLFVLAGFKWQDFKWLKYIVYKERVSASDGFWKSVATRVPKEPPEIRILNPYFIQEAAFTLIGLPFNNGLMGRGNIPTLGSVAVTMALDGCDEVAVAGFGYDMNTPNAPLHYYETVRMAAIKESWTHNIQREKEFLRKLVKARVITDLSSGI
Briefly: Donor specificity for reverse sialylation, ST3Gal-III. To be noted: 0.05 mM donor, 0.8 mM 5′-CMP. The text has this:
(§1) We determined if reverse sialylation was more pronounced for ST3Gal-II in comparison to other sialyltransferases. Thus two other cloned rat sialyltransferases ST3Gal-III (or α2,3(N)ST) and ST6Gal-I (or α2,6(N)ST) (14) were examined. For these studies, we generated two molecules: i) [9-^3H]NeuAcα2,6Galβ1,4GlcNAcβ-O—Al (Al-Allyl) was made by the reaction of Galβ1,4GlcNAcβ-O—Al and CMP-[9-^3H]NeuAc in the presence of α2,6sialyltransferase, ST6Gal-I. (The radioactive product was separated using Biogel P2 column using a protocol similar to that described above.); and ii) [9-^3H]NeuAcα2,3Galβ1,4 GlcNAcβ-O—Al was similarly produced by reacting Galβ1,4GlcNAcβ-O—Al and CMP-[9-^3H]NeuAc in the presence of α2,3sialyltransferase ST3Gal-III. […] However, it is efficiently sialylated by both ST3Gal-III and ST6Gal-I. The ability of these two radiolabeled molecules ([14] and [15]) to act as [9-^3H]NeuAc donors was assayed in studies (Table IV) where the compounds were mixed with excess 5′-CMP, enzyme and acceptors with benzyl aglycan group. C18 cartridges were then used to measure the extent of [9-^3H]NeuAc transferred to acceptor using reaction scheme-II. Because all acceptors used in this table are efficiently sialylated by enzymes listed in the adjacent columns, these experiments essentially measure the amount of CMP-NeuAc formed using particular donor-enzyme pairs.
(§2) Thus, reverse sialylation takes place with ST3Gal-II.

Experiment [1] addresses T2, ST3Gal-II (Rattus norvegicus, UniProt Q11205).
T2 construct: purchased Calbiochem
T2 sequence (Q11205 1-350): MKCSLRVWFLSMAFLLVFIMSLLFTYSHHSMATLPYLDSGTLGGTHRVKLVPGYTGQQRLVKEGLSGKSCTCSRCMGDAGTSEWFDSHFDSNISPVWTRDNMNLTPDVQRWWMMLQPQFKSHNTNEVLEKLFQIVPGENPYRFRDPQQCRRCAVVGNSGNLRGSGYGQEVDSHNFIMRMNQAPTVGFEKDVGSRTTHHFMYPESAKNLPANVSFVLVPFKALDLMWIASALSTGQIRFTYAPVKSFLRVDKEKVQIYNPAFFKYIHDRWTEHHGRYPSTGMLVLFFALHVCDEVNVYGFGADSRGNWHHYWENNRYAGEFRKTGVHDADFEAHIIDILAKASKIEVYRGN
Kind of experiment: Donor specificity for reverse sialylation, ST3Gal-II. To be noted: 0.05 mM donor, […] 5′-CMP, acceptor 5 mM D-Fuc(1,3GalNAc(-O-Bn, 3 mU ST3Gal-II)); zero = slightly below background.
Source text: as §1, with “pairs. […]” for “pairs.”

The target of experiment [2] is T2, ST3Gal-II. Briefly: Exchange of radiolabeled sialyl residues in bovine brain gangliosides (TLC). To be noted: bovine brain ganglioside mixture, CMP-[9-3H]NeuAc or CMP-[14C]NeuAc. The source says: Rat recombinant ST3Gal-II (α2,3(0)ST) was purchased from Calbiochem. Three different lots of ST3Gal-II purchased from Calbiochem and used in this study yielded similar results. CMP-NeuAc was obtained from Sigma. All enzymatic sialylation reactions were typically carried out in NaCa Codylate buffer pH6.0 in presence of enzyme acceptor CMP-[9-^3H]NeuAc or (NEN-DuPont) CMP[^14C]NeuAc. The concentration of total CMP-NeuAc was adjusted in individual reactions by supplementing with non-radioactive CMP-NeuAc. Products formed were separated using different chromatograph procedures. • a) Gel chromatography on Biogel P2 and P6 columns: A Biogel P2 column or Biogel P6 column (Fine Mesh; 1.0×116.0 cm) was used with 0.1 M pyridine acetate (pH5.4) as the eluent at room temperature. […] The first peak of radioactivity emerging in this void volume was collected and lyophilized to dryness. […]
Both [9-^3H] and [^14C] sialic acid labeled bovine brain ganglioside mixtures were subjected to TLC using CHcl3:CH3OH:0.2% aqueous CaCl2 (v/v 60:40:9) as the solvent system. The radioactivities were located on the TLC plates by scraping silica gel from 0.5 cm width segments of the TLC plates and then counting the radioactivity after soaking silica in 2.0 ml water by scintillation counting. […]

In the next experiment the target is T3, ST6Gal-I (Rattus norvegicus, UniProt P13721).
T3 construct: purchased Calbiochem
T3 sequence (P13721 1-403): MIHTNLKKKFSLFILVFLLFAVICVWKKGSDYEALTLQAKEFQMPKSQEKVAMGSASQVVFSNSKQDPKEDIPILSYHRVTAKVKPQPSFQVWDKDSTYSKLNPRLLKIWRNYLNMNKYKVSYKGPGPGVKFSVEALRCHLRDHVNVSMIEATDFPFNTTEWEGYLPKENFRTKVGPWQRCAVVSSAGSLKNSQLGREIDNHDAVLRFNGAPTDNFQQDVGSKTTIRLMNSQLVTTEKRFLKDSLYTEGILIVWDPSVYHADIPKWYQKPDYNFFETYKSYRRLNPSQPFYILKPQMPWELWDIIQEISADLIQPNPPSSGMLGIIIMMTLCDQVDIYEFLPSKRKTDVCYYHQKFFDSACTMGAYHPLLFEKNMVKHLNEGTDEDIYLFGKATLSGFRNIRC
Briefly: Donor specificity for reverse sialylation, ST6Gal-I. To be noted: 0.05 mM donor, 0.8 mM 5′-CMP, 3 mU ST6Gal-I.
Source text: as §1, §2

On to “[9-^3H]NeuAcα2,3Galβ1,4 GlcNAcβ-O—Al [[15]]”, for which the Radiolabeled acceptor/product formed on ST3Gal-III (acceptor 2.5 mM Gal(1,4GlcNAc(1,3Gal(1,4GlcNAc(-O-Bn, 3 mU ST3Gal-III))))) is 24 CPM; at ST3Gal-III (acceptor 2.5 mM Galβ1,4GlcNAcβ1,6(Galβ1,3)GalNAcα-O-Bn, 3 mU ST3Gal-III) it was 27 CPM; on ST3Gal-III (acceptor 2.5 mM Galβ1,4GlcNAcβ-O-Bn, 3 mU ST3Gal-III), 5 CPM; at ST3Gal-II [1] it was <0* CPM.
Regarding GD1a, the “Exchange of sialyl residues with CMP-sialic acid by ST3Gal-II” value on ST3Gal-II [2] is reported as “exchangeable”.
The same measure, in the same setting: under GT1b stands “exchangeable”.
Turning to “[9-^3H]NeuAcα2,6Galβ1,4GlcNAcβ-O—Al [[14]]”, the Radiolabeled acceptor/product formed on ST6Gal-I (acceptor 2.5 mM Galβ1,4GlcNAcβ1,3Galβ1,4GlcNAcβ-O-Bn) is listed as 45 CPM; on ST6Gal-I (acceptor 2.5 mM Galβ1,4GlcNAcβ1,6(Galβ1,3)GalNAcα-O-Bn) it was 36 CPM; at ST6Gal-I (acceptor 2.5 mM Galβ1,4GlcNAcβ-O-Bn), 129 CPM; at ST3Gal-II [1], <0* CPM.

(Values after patent publication US8278072B1, “Method for synthesis of sialylated products using reversible sialylation” (Health Research, Inc., priority 2007, dated 2012).)
